Where two headings read alike, the source gives them in different places.

Assay type in all cases: biochemical
The target of assay [1] is T1, hSULT1A1 (Homo sapiens, UniProt P50225).
T1 construct: 6-histidine tag (N); TEV site (N); made in house; host or cells: Escherichia coli BL21 (DE3), pET29a(+)
Kind of assay: Fluorescence-based microplate inhibition assay, hSULT1A1-catalyzed HN-241 4-O-sulfation.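 As to all read-outs here: reaction started with 200 µM PAPS at 37 °C, fluorescence read continuously (Ex 350 nm, Em 450 nm), activity expressed relative to DMSO-only control without inhibitor.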 Particulars: for activity at 1 µM: read-out: Residue activity (%) hSULT1A1; for IC50: hSULT1A1-catalyzed HN-241 4-O-sulfation.

Assay [2] deals with T2, hSULT1A2 (Homo sapiens, UniProt P50226).
T2 construct: 6-histidine tag (N); TEV site (N); made in house; host or cells: Escherichia coli BL21 (DE3), pET29a(+)
T2 sequence (P50226 whole entry): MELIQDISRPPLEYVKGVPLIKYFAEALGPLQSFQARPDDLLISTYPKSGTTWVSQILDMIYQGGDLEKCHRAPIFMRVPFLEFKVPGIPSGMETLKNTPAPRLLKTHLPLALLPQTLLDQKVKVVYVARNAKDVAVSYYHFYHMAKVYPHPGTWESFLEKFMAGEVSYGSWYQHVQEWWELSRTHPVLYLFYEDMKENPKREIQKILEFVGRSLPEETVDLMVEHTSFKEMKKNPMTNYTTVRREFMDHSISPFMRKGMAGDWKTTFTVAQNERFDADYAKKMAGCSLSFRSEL
Put plainly: Fluorescence-based microplate inhibition assay, hSULT1A2-catalyzed HN-241 4-O-sulfation. Particulars: for remaining activity at 10 µM: 0.25 h, read-out: Residue activity (%) hSULT1A2; for IC50: hSULT1A2-catalyzed HN-241 4-O-sulfation.

In assay [3] the target is T3, hSULT1A3 (Homo sapiens, UniProt P0DMM9).
T3 construct: 6-histidine tag (N); TEV site (N); made in house; host or cells: Escherichia coli BL21 (DE3), pET29a(+)
T3 sequence (P0DMM9 whole entry): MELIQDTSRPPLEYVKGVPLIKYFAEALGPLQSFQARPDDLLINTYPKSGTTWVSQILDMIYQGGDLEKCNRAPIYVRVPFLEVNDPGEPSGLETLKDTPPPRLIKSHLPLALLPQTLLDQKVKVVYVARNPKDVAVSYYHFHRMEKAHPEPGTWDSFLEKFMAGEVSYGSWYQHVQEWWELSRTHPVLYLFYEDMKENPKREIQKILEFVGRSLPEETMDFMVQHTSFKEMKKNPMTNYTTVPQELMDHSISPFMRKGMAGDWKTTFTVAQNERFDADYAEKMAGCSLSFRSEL
Put plainly: Fluorescence-based microplate inhibition assay, hSULT1A3-catalyzed HN-241 4-O-sulfation. The conditions noted are these: for activity at 10 µM: read-out: Residue activity (%) hSULT1A3.

Setting [4] is: test compound 1 μM, HN-241 1 μM, 15 min.
The mark [5] stands for this setting: test compound 10 μM, HN-241 5 μM, 15 min.
Setting [6] is: test compound 10 μM, HN-241 10 μM, 15 min.

T1 sequence (P50225 whole entry): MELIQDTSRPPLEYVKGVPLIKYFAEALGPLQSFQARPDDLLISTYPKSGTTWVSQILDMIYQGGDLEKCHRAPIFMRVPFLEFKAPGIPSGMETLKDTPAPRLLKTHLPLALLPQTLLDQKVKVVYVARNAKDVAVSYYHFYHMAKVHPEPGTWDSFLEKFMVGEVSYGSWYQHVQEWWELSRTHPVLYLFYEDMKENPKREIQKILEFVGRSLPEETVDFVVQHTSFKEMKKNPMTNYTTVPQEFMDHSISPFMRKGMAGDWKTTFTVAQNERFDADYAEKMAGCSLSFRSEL

Consider `CC(C)=CCC[C@](C)(O)[C@H]1CC[C@]2(C)[C@@H]1[C@H](O)C[C@@H]1[C@@]3(C)CC[C@H](O)C(C)(C)[C@@H]3[C@@H](O[C@@H]3O[C@H](CO)[C@@H](O)[C@H](O)[C@H]3O[C@@H]3O[C@@H](C)[C@H](O)[C@@H](O)[C@H]3O)C[C@]12C` [Ginsenoside Rg2], for which the activity at 1 µM in assay [1] (setting [4]) was 113%. Further, the remaining activity at 10 µM in assay [2] (setting [5]) was 106%. For the same molecule, in assay [3] (setting [6]), the activity at 10 µM was 100%.
In the case of `O=C(/C=C/c1ccc(O[C@@H]2O[C@H](CO)[C@@H](O)[C@H](O)[C@H]2O)cc1)c1ccc(O)cc1O` [Neoisoliquiritigenin], the “Residue activity (%) hSULT1A1” value in assay [1] (setting [4]) turned out to be 91.36%. In addition, in assay [2] (setting [5]), the “Residue activity (%) hSULT1A2” value came to 84.48%. In addition, the “Residue activity (%) hSULT1A3” value in assay [3] (setting [6]) was determined as 108.00%.
For the molecule `CC(C)[C@]12O[C@H]1[C@@H]1O[C@]13[C@]1(O[C@H]1C[C@H]1C4=C(CC[C@@]13C)C(=O)OC4)[C@@H]2O` [Triptolide], the activity at 1 µM in assay [1] (setting [4]) is 109%. Besides, in assay [2] (setting [5]), the remaining activity at 10 µM came to 119%. For the same molecule, the activity at 10 µM in assay [3] (setting [6]) stood at 110%.
On to `C/C=C(/C)C(=O)O[C@H]1c2cc(OC)c(OC)c(OC)c2-c2c(cc3c(c2OC)OCO3)C[C@H](C)[C@]1(C)O` [Schisantherin B], for which the activity at 1 µM in assay [1] (setting [4]) is 109%. Besides, in assay [2] (setting [5]), the remaining activity at 10 µM was 109%. Besides, in assay [3] (setting [6]), the activity at 10 µM is 108%.
For the molecule `COc1ccc(-c2coc3cc(O[C@@H]4O[C@H](CO)[C@@H](O)[C@H](O)[C@H]4O)ccc3c2=O)cc1O` [Calycosin-7-O-β-D-glucoside], the “Residue activity (%) hSULT1A1” value in assay [1] (setting [4]) turned out to be 2.77%. Besides, in assay [2] (setting [5]), the “Residue activity (%) hSULT1A2” value was determined as 22.81%. In addition, in assay [3] (setting [6]), the “Residue activity (%) hSULT1A3” value is reported as 54.16%.
Regarding `CC(C)=CCc1cc(-c2oc3cc(O)cc(O)c3c(=O)c2O)ccc1O` [iso-Licoflavonol], the activity at 1 µM in assay [1] (setting [4]) is 3.31%. Besides, the remaining activity at 10 µM in assay [2] (setting [5]) was found to be 0.03%. The activity at 10 µM in assay [3] (setting [6]) is 62.1%.
`COC(=O)/C=C/c1ccc(O)c(O)c1` [Methyl caffeate acid]: in assay [1] (setting [4]), the “Residue activity (%) hSULT1A1” value is 9.01%. In addition, in assay [2] (setting [5]), the “Residue activity (%) hSULT1A2” value is on record as 12.99%. For the same molecule, in assay [3] (setting [6]), the “Residue activity (%) hSULT1A3” value is reported as 44.99%.
`COc1cc([C@@H]2c3cc4c(cc3[C@H](O)[C@H]3COC(=O)[C@H]23)OCO4)cc(OC)c1OC` [Podophyllotoxin]: the activity at 1 µM in assay [1] is 110%. Further, the remaining activity at 10 µM in assay [2] came out at 88.9%. Further, the activity at 10 µM in assay [3] turned out to be 111%.
With `O=C1c2c(O)cc(O)cc2OC(c2ccc(O)c(O)c2)C1O` (centres unmarked) [Taxifolin], the activity at 1 µM in assay [1] (setting [4]) came to 3.26%. In addition, the remaining activity at 10 µM in assay [2] (setting [5]) was 41.7%. For the same molecule, the activity at 10 µM in assay [3] (setting [6]) stood at 59.7%.
Take Hydroxysafflor yellow A: the “Residue activity (%) hSULT1A1” value in assay [1] (setting [4]) stood at 97.09%. In addition, in assay [2] (setting [5]), the “Residue activity (%) hSULT1A2” value was 100.46%. The “Residue activity (%) hSULT1A3” value in assay [3] (setting [6]) was determined as 99.76%.
For the molecule `C=C(CCC=C(C)C)[C@H]1CC[C@]2(C)[C@@H]1[C@H](O)C[C@@H]1[C@@]3(C)CC[C@H](O)C(C)(C)[C@@H]3[C@@H](O[C@@H]3O[C@H](CO)[C@@H](O)[C@H](O)[C@H]3O[C@@H]3O[C@@H](C)[C@H](O)[C@@H](O)[C@H]3O)C[C@]12C` [Ginsenoside Rg6], the “Residue activity (%) hSULT1A1” value in assay [1] (setting [4]) came to 100.32%. The “Residue activity (%) hSULT1A2” value in assay [2] (setting [5]) is given as 103.59%. For the same molecule, the “Residue activity (%) hSULT1A3” value in assay [3] (setting [6]) is 124.68%.
As for `CC(C)=CCOc1c2occc2cc2ccc(=O)oc12` [Imperatorin], the activity at 1 µM in assay [1] (setting [4]) was found to be 101%. Moreover, in assay [2] (setting [5]), the remaining activity at 10 µM amounted to 94.3%. In addition, the activity at 10 µM in assay [3] (setting [6]) turned out to be 128%.
Turning to `O=C(/C=C/c1ccccc1)c1ccccc1` [trans-Chalcone], the “Residue activity (%) hSULT1A1” value in assay [1] (setting [4]) is 71.86%. Besides, the “Residue activity (%) hSULT1A2” value in assay [2] (setting [5]) is 91.40%. In addition, in assay [3] (setting [6]), the “Residue activity (%) hSULT1A3” value was determined as 116.88%.
As to `O=c1cc(-c2ccc(Oc3c(O)cc4oc(-c5ccc(O)cc5)cc(=O)c4c3O)cc2)oc2cc(O)cc(O)c12` [Hinokiflavone], the half-maximal inhibitory concentration (IC50) is 18.9 ± 1.17 nM in assay [1], 110 ± 14.7 nM in assay [2] and 2130 ± 182 nM in assay [3] (hSULT1A3-catalyzed HN-241 4-O-sulfation). Besides, in assay [1] (setting [4]), the activity at 1 µM was 0%. For the same molecule, the remaining activity at 10 µM in assay [2] (setting [5]) was determined as 0%. The activity at 10 µM in assay [3] (setting [6]) was 9.46%.
Regarding `CC(C)Oc1ccc2c(=O)c(-c3ccccc3)coc2c1` [Ipriflavone], the activity at 1 µM in assay [1] (setting [4]) was 61.3%. For the same molecule, the remaining activity at 10 µM in assay [2] (setting [5]) worked out at 89.5%. Besides, in assay [3] (setting [6]), the activity at 10 µM came to 117%.
As for `C[C@@H]1[C@H]2[C@H](O[C@@H]3O[C@H](CO)[C@@H](O)[C@H](O)[C@H]3O)OC=C(C(=O)O)[C@H]2C[C@@H]1O` [Loganic acid], the activity at 1 µM in assay [1] (setting [4]) was 128%. Also, in assay [2] (setting [5]), the remaining activity at 10 µM is 98.6%. For the same molecule, the activity at 10 µM in assay [3] (setting [6]) was 119%.
As to `CC(C)=CC/C=C(/C)[C@H]1CC[C@]2(C)[C@@H]1[C@H](O)C[C@@H]1[C@@]3(C)CC[C@H](O)C(C)(C)[C@@H]3[C@@H](O[C@@H]3O[C@H](CO)[C@@H](O)[C@H](O)[C@H]3O[C@@H]3O[C@@H](C)[C@H](O)[C@@H](O)[C@H]3O)C[C@]12C` [Ginsenoside F4], in assay [1] (setting [4]), the “Residue activity (%) hSULT1A1” value was 99.89%. In assay [2] (setting [5]), the “Residue activity (%) hSULT1A2” value is 89.89%. Besides, in assay [3] (setting [6]), the “Residue activity (%) hSULT1A3” value stood at 99.83%.
Consider `CCCCCCCCCCCCCCCC(=O)O` [Palmitic acid], for which the activity at 1 µM in assay [1] (setting [4]) worked out at 93.1%. Also, the remaining activity at 10 µM in assay [2] (setting [5]) was 84.8%. Moreover, in assay [3] (setting [6]), the activity at 10 µM was 113%.
In the case of `CC(C)=CCC[C@@](C)(O)[C@H]1CC[C@]2(C)[C@@H]1[C@H](O)C[C@@H]1[C@@]3(C)CC[C@H](O)C(C)(C)[C@@H]3[C@@H](O[C@@H]3O[C@H](CO)[C@@H](O)[C@H](O)[C@H]3O[C@@H]3O[C@@H](C)[C@H](O)[C@@H](O)[C@H]3O)C[C@]12C` [20(R)-Ginsenoside Rg2], the “Residue activity (%) hSULT1A1” value in assay [1] (setting [4]) was found to be 104.07%. For the same molecule, the “Residue activity (%) hSULT1A2” value in assay [2] (setting [5]) was 104.32%. In addition, the “Residue activity (%) hSULT1A3” value in assay [3] (setting [6]) came to 122.28%.
For `COc1cc2c(c(OC)c1OC)-c1c(cc(OC)c(OC)c1OC)C[C@](C)(O)[C@@H](C)C2` [Schisandrin], in assay [1] (setting [4]), the “Residue activity (%) hSULT1A1” value amounted to 129.29%. Moreover, the “Residue activity (%) hSULT1A2” value in assay [2] (setting [5]) is 102.92%. In addition, in assay [3] (setting [6]), the “Residue activity (%) hSULT1A3” value is given as 123.25%.
Regarding `C=C(C)[C@H]1Cc2c(ccc3c2O[C@@H]2COc4cc(OC)c(OC)cc4[C@@H]2C3=O)O1` [Rotenone], in assay [1], the activity at 1 µM stood at 109%. The remaining activity at 10 µM in assay [2] was 102%. Moreover, in assay [3], the activity at 10 µM amounted to 106%.
On to `Cc1cc(O)c2c(c1)C(=O)c1cc(O)cc(O)c1C2=O` [Emodin], for which the IC50 in assay [1] came to 76.5 ± 5.28 nM; in assay [2] it was 360 ± 22.6 nM. The activity at 1 µM in assay [1] (setting [4]) is 0%. Besides, the remaining activity at 10 µM in assay [2] (setting [5]) stood at 0%. The activity at 10 µM in assay [3] (setting [6]) is 65%.
In the case of `CC(C)=CCC[C@@](C)(O)[C@H]1CC[C@]2(C)[C@@H]1[C@H](O)C[C@@H]1[C@@]3(C)CC[C@H](O[C@@H]4O[C@H](CO)[C@@H](O)[C@H](O)[C@H]4O)C(C)(C)[C@@H]3CC[C@]12C` [20(R)-Ginsenoside Rh2], in assay [1] (setting [4]), the “Residue activity (%) hSULT1A1” value is on record as 98.01%. Further, the “Residue activity (%) hSULT1A2” value in assay [2] (setting [5]) is listed as 114.69%. In assay [3] (setting [6]), the “Residue activity (%) hSULT1A3” value came to 116.23%.
For the molecule `COc1cc(O)c2c(c1)C(=O)c1cc(C)cc(O)c1C2=O` [Emodin-3-methyl ether], in assay [1] (setting [4]), the “Residue activity (%) hSULT1A1” value was 54.41%. In addition, the “Residue activity (%) hSULT1A2” value in assay [2] (setting [5]) is on record as 89.81%. In addition, the “Residue activity (%) hSULT1A3” value in assay [3] (setting [6]) was found to be 103.18%.
As to `O=c1cc(-c2ccc(O)cc2)oc2c([C@@H]3O[C@H](CO)[C@@H](O)[C@H](O)[C@H]3O)c(O)cc(O)c12` [Vitexin], the activity at 1 µM in assay [1] (setting [4]) stood at 102%. The remaining activity at 10 µM in assay [2] (setting [5]) is 115%. Besides, the activity at 10 µM in assay [3] (setting [6]) was determined as 108%.

The values above are taken from paper PMC11202169, “A Novel Fluorescence-Based Microplate Assay for High-Throughput Screening of hSULT1As Inhibitors” (Biosensors, 2024).
